Values of other authors as cited in patent US20230111350A1, “Opthalmic Compositions for Treating Coronaviruses” (priority 2020, published 2023).

How the values were obtained:
[1] = systemic administration; dependent on daily dose by weight
[2] = relative to chloroquine
SARS-CoV-2 = conditions: relative to chloroquine

For `CCN(CC)CCCC(C)Nc1ccnc2cc(Cl)ccc12` (stereo not shown) [chloroquine], which “toxicity in ARPE-19 cells” value (ARPE-19) is on record?
The value was “vacuole formation and cell death”.

With `Oc1c(I)cc(Cl)c2cccnc12` [clioquinol] as the compound, how does the “effect on chloroquine-associated toxicity in ARPE-19 cells” value (ARPE-19; co-treatment with chloroquine, zinc-dependent, by reversing autophagy arrest) read?
The value was “attenuated the chloroquine-associated toxicity”.

Which “prevalence of retinal toxicity” value [1] does the source give for `CCN(CCO)CCCC(C)Nc1ccnc2cc(Cl)ccc12` (stereo not shown) [hydroxychloroquine] here?
The value was at most 7.5%.

And the toxicity profile [2]?
The toxicity profile was “reduced toxicity profile”.

And the “potency at inhibiting SARS-CoV-2 in vitro” value (SARS-CoV-2)?
Its value is “more potent than chloroquine”.

What about the “percentage of patients testing positive for COVID-19” value (COVID-19; after 6 days, 600 mg/day oral, untreated 90%) of the same compound?
The value was 25%.

And the viral load (COVID-19; oral administration)?
Its viral load is “strong reduction in viral load”.
